Positions count from the first letter of the chain named.
Columns and labels:
Assay type in all cases: biochemical
hmtThrRS [1] = biological target: T1, hmtThrRS (Homo sapiens, UniProt Q9BW92); assay: tRNA aminoacylation and mischarging, […]tRNA TLC, after preincubation; IBP-MS of modified Cys; conditions: covalent (S-nitrosation, reversed by DTT); 1 uM enzyme preincubated with 1 or 5 mM GSNO, 37 C; pH 7.5, 10 mM MgCl2
T1 construct: gene TARS2; mature form Leu20-Phe718, 699 residues, pET28, Ni-NTA, E. coli BL21(DE3), no reducing agent, dimer
T1 sequence (Q9BW92 20-718): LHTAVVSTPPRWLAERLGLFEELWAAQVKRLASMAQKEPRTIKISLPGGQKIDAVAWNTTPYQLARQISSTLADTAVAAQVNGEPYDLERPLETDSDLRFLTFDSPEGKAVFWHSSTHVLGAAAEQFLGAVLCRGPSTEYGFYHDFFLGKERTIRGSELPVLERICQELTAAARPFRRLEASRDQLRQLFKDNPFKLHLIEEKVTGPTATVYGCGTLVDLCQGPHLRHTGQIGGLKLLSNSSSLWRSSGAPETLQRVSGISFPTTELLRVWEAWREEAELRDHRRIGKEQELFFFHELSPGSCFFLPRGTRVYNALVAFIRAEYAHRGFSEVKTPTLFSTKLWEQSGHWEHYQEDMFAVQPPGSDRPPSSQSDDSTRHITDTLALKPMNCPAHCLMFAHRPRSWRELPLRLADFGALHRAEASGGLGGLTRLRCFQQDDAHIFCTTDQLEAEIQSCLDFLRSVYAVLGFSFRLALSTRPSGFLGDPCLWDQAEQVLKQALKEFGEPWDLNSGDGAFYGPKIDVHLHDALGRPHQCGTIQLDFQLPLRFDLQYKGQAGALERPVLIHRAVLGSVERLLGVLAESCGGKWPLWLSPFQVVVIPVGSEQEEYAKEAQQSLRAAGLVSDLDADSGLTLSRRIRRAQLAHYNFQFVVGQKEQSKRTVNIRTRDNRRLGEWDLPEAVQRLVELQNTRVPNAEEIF

hmtThrRS [2] = biological target: T2, hmtThrRS (Homo sapiens, UniProt Q9BW92, C185S/C409S/C603S); assay: tRNA aminoacylation and posttransfer editing, […]tRNA TLC, after preincubation; conditions: covalent (S-nitrosation); 1 mM GSNO preincubation; C506 mutant (only Cys506 kept of the four sites)
T2 construct: gene TARS2; mature form Leu20-Phe718, 699 residues, pET28, Ni-NTA, E. coli BL21(DE3), no reducing agent, dimer
T2 sequence (Q9BW92 20-718 C185S/C409S/C603S): T1 sequence (Q9BW92 20-718) with C166S, C390S, C584S

hmtThrRS [3] = biological target: T3, hmtThrRS (Homo sapiens, UniProt Q9BW92, C409S/C506S/C603S); assay: as above; conditions: covalent (S-nitrosation); 1 mM GSNO preincubation; C185 mutant (only Cys185 kept of the four sites)
T3 construct: gene TARS2; mature form Leu20-Phe718, 699 residues, pET28, Ni-NTA, E. coli BL21(DE3), no reducing agent, dimer
T3 sequence (Q9BW92 20-718 C409S/C506S/C603S): T1 sequence (Q9BW92 20-718) with C390S, C487S, C584S

hmtThrRS [4] = biological target: T4, hmtThrRS (Homo sapiens, UniProt Q9BW92, C185S/C409S/C506S); assay: as above; conditions: covalent (S-nitrosation); 1 mM GSNO preincubation; C603 mutant (only Cys603 kept of the four sites)
T4 construct: gene TARS2; mature form Leu20-Phe718, 699 residues, pET28, Ni-NTA, E. coli BL21(DE3), no reducing agent, dimer
T4 sequence (Q9BW92 20-718 C185S/C409S/C506S): T1 sequence (Q9BW92 20-718) with C166S, C390S, C487S

hmtThrRS [5] = biological target: T5, hmtThrRS (Homo sapiens, UniProt Q9BW92, C185S/C506S/C603S); assay: as above; conditions: covalent (S-nitrosation); 1 mM GSNO preincubation; C409 mutant (only Cys409 kept of the four sites)
T5 construct: gene TARS2; mature form Leu20-Phe718, 699 residues, pET28, Ni-NTA, E. coli BL21(DE3), no reducing agent, dimer
T5 sequence (Q9BW92 20-718 C185S/C506S/C603S): T1 sequence (Q9BW92 20-718) with C166S, C487S, C584S

hmtThrRS [6] = biological target: T1, hmtThrRS; assay: tRNA mischarging, […]tRNA TLC; conditions: noncognate; 100 mM Ser, E. coli tRNA-Thr, 10 mM MgCl2, pH 7.5
EcThrRS = biological target: T6, EcThrRS (Escherichia coli, UniProt P0A8M3); assay: tRNA aminoacylation, […]tRNA TLC; conditions: 1 mM Thr, E. coli tRNA-Thr, 10 mM MgCl2, pH 7.5
T6 construct: gene thrS; purified enzyme, construct not described in main text
T6 sequence (P0A8M3 whole entry): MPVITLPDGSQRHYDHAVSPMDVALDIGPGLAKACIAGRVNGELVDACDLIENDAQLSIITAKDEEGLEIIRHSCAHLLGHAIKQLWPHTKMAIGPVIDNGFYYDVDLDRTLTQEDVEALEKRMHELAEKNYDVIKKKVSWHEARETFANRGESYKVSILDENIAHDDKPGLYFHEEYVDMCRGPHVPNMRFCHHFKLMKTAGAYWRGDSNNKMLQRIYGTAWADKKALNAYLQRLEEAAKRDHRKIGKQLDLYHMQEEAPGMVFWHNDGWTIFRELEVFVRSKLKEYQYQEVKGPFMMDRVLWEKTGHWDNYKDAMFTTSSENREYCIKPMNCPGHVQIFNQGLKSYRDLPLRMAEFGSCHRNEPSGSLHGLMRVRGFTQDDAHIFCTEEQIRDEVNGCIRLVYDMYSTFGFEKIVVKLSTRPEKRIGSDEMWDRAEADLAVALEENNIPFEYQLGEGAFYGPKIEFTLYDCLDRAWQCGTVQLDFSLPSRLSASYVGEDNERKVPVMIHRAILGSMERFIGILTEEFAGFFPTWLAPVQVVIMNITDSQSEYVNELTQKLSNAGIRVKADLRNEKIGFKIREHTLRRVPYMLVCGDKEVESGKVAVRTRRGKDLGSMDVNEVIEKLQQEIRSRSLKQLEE

hmtThrRS [7] = biological target: T1, hmtThrRS; assay: tRNA aminoacylation, […]tRNA TLC; ATP-PPi exchange; conditions: 1 mM Thr, 10 uM E. coli tRNA-Thr, 10 mM MgCl2, pH 7.5

## N[C@@H](CCC(=O)N[C@@H](CSN=O)C(=O)NCC(=O)O)C(=O)O [GSNO, S-nitrosoglutathione]
hmtThrRS [1]
  tRNA aminoacylation and mischarging, [32P]tRNA TLC, after preincubation; IBP-MS: The resulting inhibition of both the aminoacylation and mischarging activities of hmtThrRS was dose-dependent
hmtThrRS [2]
  tRNA aminoacylation and posttransfer editing, [32P]tRNA TLC, after preincubation: Both activities for the four mutants were obviously inhibited after GSNO incubation
hmtThrRS [3]
  tRNA aminoacylation and posttransfer editing, [32P]tRNA TLC, after preincubation: Both activities for the four mutants were obviously inhibited after GSNO incubation
hmtThrRS [4]
  tRNA aminoacylation and posttransfer editing, [32P]tRNA TLC, after preincubation: Both activities for the four mutants were obviously inhibited after GSNO incubation
hmtThrRS [5]
  tRNA aminoacylation and posttransfer editing, [32P]tRNA TLC, after preincubation: the inhibitory effect of GSNO on the C409 mutant was the most prominent

## N[C@@H](CO)C(=O)O [Ser, L-Ser]
hmtThrRS [6]
  tRNA mischarging, [32P]tRNA TLC: mischarging of tRNA^Thr with noncognate Ser was determined without or with H2O2 treatment

## C[C@@H](O)[C@H](N)C(=O)O [Thr, L-Thr]
EcThrRS
  tRNA aminoacylation, [32P]tRNA TLC: aminoacylation activity of EcThrRS was assayed and compared
hmtThrRS [7]
  tRNA aminoacylation, [32P]tRNA TLC; ATP-PPi exchange: The synthesis of Thr-tRNA^Thr was obviously not affected by H2O2
